Assay results published in ChEMBL document CHEMBL6134868, “Novel Aryl Sulfonium Modification on Vancomycin to Tackle MRSA and VRE In Vitro and In Vivo through Dual Enhanced Cell-Wall and Membrane Inhibition” (J Med Chem, 2025).
Activity calls are given as the source filed them. No cut-off for these calls is given here.

How the values were obtained:
[1] = MRT (infinity) in CD-1 mouse at 5 mg/kg, iv measured for 0.05 to 24 hrs by UPLC analysis; format: ADME, organism-based; conditions: in vivo, time 0.05-24 hrs
Enterococcus faecium [2] = assay: Antibacterial activity against vancomycin-resistant Enterococcus faecium Efm-HS-08257 harboring VanM phenotype incubated for 16 to 24 hrs by broth microdilution assay; format: functional; conditions: time 16-24 hrs
Escherichia coli = assay: Antibacterial activity against Escherichia coli AB1157 incubated for 16 to 24 hrs by broth microdilution assay; format: functional; conditions: time 16-24 hrs
Staphylococcus aureus [3] = assay: Antibacterial activity against vancomycin-intermediate Staphylococcus aureus Mu50 incubated for 16 to 24 hrs by broth microdilution assay; format: functional; conditions: time 16-24 hrs
Staphylococcus aureus [4] = assay: Induction of membrane permeability in methicillin-resistant Staphylococcus aureus USA300 LAC by fluorescence based analysis; format: functional, organism-based; conditions: dose 2.67-170 µg/ml
[5] = Hemolytic activity against rat erythrocytes at 100 ug/ml incubated for 1 hr by absorbance based assay; format: toxicity, cell-based, Erythrocyte; conditions: erythrocyte, 1 h, dose 100 µg/ml
Staphylococcus aureus [6] = assay: Inhibition of peptidoglycan biosynthesis in methicillin-resistant Staphylococcus aureus USA300 LAC assessed as fold increase in accumulation of Park's nucleotide at 5 ug/ml incubated for 2 hrs by RP-HPLC analysis; format: functional; conditions: dose 5 µg/ml
Pseudomonas aeruginosa = assay: Antibacterial activity against Pseudomonas aeruginosa PAO1 incubated for 16 to 24 hrs by broth microdilution assay; format: functional; conditions: time 16-24 hrs
Enterococcus faecium [7] = assay: Antibacterial activity against vancomycin-resistant Enterococcus faecium Efm-HS-vb02 harboring VanB phenotype incubated for 16 to 24 hrs by broth microdilution assay; format: functional; conditions: time 16-24 hrs
[8] = Acute toxicity in mouse assessed as animal suvival at 40 mg/kg, iv measured for 7 days; format: organism-based; conditions: in vivo, 168 h, time 7 day
Staphylococcus aureus [9] = assay: Dissipation of membrane potential in methicillin-resistant Staphylococcus aureus USA300 LAC at 1.3 to 170 ug/ml by DiSC3(5) dye based analysis; format: functional, organism-based; conditions: dose 1.3-170 µg/ml
[10] = Half life in CD-1 mouse at 5 mg/kg, iv measured for 0.05 to 24 hrs by UPLC analysis; format: ADME, organism-based; conditions: in vivo, time 0.05-24 hrs
[11] = Cytotoxicity against HK-2 cells assessed as cell viability at 50 mg/L incubated for 72 hrs by CCK8 assay relative to control; format: toxicity, cell-based; conditions: human, at 50 µg/mL, read-out: Activity
Enterococcus faecium [12] = assay: Antibacterial activity against vancomycin-resistant Enterococcus faecium Efm-HS-vb01 harboring VanB phenotype incubated for 16 to 24 hrs by broth microdilution assay; format: functional; conditions: time 16-24 hrs
Staphylococcus aureus [13] = assay: Antibacterial activity against methicillin-resistant Staphylococcus aureus USA300 LAC incubated for 16 to 24 hrs by broth microdilution assay; format: functional; conditions: time 16-24 hrs
[14] = AUC (infinity) in CD-1 mouse at 5 mg/kg, iv measured for 0.05 to 24 hrs by UPLC analysis; format: ADME, organism-based; conditions: in vivo, time 0.05-24 hrs
Enterococcus faecium [15] = assay: Antibacterial activity against vancomycin-resistant Enterococcus faecium SC-2022-D2-059 harboring VanA phenotype incubated for 16 to 24 hrs by broth microdilution assay; format: functional; conditions: time 16-24 hrs
Acinetobacter baumannii [16] = assay: Antibacterial activity against carbapenem-resistant Acinetobacter baumannii CRAB-1 clinical isolate incubated for 16 to 24 hrs by broth microdilution assay; format: functional; conditions: time 16-24 hrs
Acinetobacter baumannii [17] = assay: Antibacterial activity against Acinetobacter baumannii ATCC19606 incubated for 16 to 24 hrs by broth microdilution assay; format: functional; conditions: time 16-24 hrs
[18] = Clearance in CD-1 mouse at 5 mg/kg, iv measured for 0.05 to 24 hrs by UPLC analysis; format: ADME, organism-based; conditions: in vivo, time 0.05-24 hrs
Enterococcus faecium [19] = assay: Antibacterial activity against vancomycin-resistant Enterococcus faecium SC-2022-D2-059 harboring VanA phenotype infected in ICR mouse assessed as animal survival rate at 10 to 20 mg/kg, iv measured for 7 days relative to control; format: functional; conditions: dose 10-20 mg/kg, time 7 day
Enterococcus faecium [20] = assay: Antibacterial activity against vancomycin-resistant Enterococcus faecium Efm-HS-0649 harboring VanA phenotype incubated for 16 to 24 hrs by broth microdilution assay; format: functional; conditions: time 16-24 hrs
Staphylococcus aureus [21] = assay: Antibacterial activity against methicillin-resistant Staphylococcus aureus USA300 LAC infected in female BALB/c mouse assessed as animal survival rate at 7 mg/kg, iv measured for 7 days consecutively relative to control; format: functional; conditions: 168 h, time 7 day
[22] = Volume of distribution at steady state in CD-1 mouse at 5 mg/kg, iv measured for 0.05 to 24 hrs by UPLC analysis; format: ADME, organism-based; conditions: in vivo, time 0.05-24 hrs, read-out: Vdss
[23] = Drug concentration in CD-1 mouse at 5 mg/kg, iv measured after 8 hrs; format: ADME, organism-based; conditions: in vivo, read-out: Drug uptake
Enterococcus faecium [24] = assay: Antibacterial activity against vancomycin-resistant Enterococcus faecium SC-2022-D2-059 harboring VanA phenotype infected in ICR mouse assessed as animal survival rate at 5 mg/kg, iv measured for 7 days relative to control; format: functional; conditions: SC-2022-D2-059, 168 h, time 7 day
[25] = Cytotoxicity against mouse AML12 cells assessed as cell viability at 50 mg/L incubated for 72 hrs by CCK8 assay relative to control; format: toxicity, cell-based; conditions: at 50 µg/mL, read-out: Activity
Klebsiella pneumoniae = assay: Antibacterial activity against Klebsiella pneumoniae KP-1 incubated for 16 to 24 hrs by broth microdilution assay; format: functional; conditions: time 16-24 hrs
Acinetobacter baumannii [26] = assay: Induction of outer membrane permeability in carbapenem-resistant Acinetobacter baumannii CRAB-1 clinical isolate by NPN dye based analysis; format: functional, organism-based; conditions: dose 1.33-170 µg/ml
Bacteria = assay: Antibacterial activity against Gram-positive bacteria incubated for 16 to 24 hrs by broth microdilution assay; format: functional; conditions: time 16-24 hrs
[27] = AUClast in CD-1 mouse at 5 mg/kg, iv measured for 0.05 to 24 hrs by UPLC analysis; format: ADME, organism-based; conditions: in vivo, time 0.05-24 hrs

`CN[C@H](CC(C)C)C(=O)N[C@H]1C(=O)N[C@@H](CC(N)=O)C(=O)N[C@H]2C(=O)N[C@H]3C(=O)N[C@H](C(=O)N[C@H](C(=O)O)c4cc(O)c(CNCCC[S+](C)CC(O)COc5ccc(-c6ccc(C(F)(F)F)cc6)cc5)c(O)c4-c4cc3ccc4O)[C@H](O)c3ccc(c(Cl)c3)Oc3cc2cc(c3O[C@@H]2O[C@H](CO)[C@@H](O)[C@H](O)[C@H]2O[C@H]2C[C@](C)(N)[C@H](O)[C@H](C)O2)Oc2ccc(cc2Cl)[C@H]1O.O=C([O-])C(F)(F)F` (stereo partly specified) gave an MRT inf [1] of 3.98 h, an MIC (Enterococcus faecium [2]) of 2 µg/mL and an MIC (Escherichia coli) of 8 µg/mL. For the same compound, the MIC (Staphylococcus aureus [3]) was 0.125 µg/mL, the Activity (Staphylococcus aureus [4]) was “Dose-dependent-effect” and the Activity [5] was “Toxic”. For the same compound, the “fold change (FC)” value (Staphylococcus aureus [6]) was “<=3”, the MIC (Pseudomonas aeruginosa) was greater than 128 µg/mL and the MIC (Enterococcus faecium [7]) was no more than 0.063 µg/mL. The Activity [8] was “Non-toxic”, the Activity (Staphylococcus aureus [9]) was “Active” and the half-life [10] was 3.57 h. It also gave a viability at 72 h, 50 mg/L [11] of roughly 100%, an MIC (Enterococcus faecium [12]) of no more than 0.063 µg/mL and an MIC (Staphylococcus aureus [13]) of 0.031 µg/mL. It also gave an AUC(0-inf) [14] of 42000 ng·h/mL, an MIC (Enterococcus faecium [15]) of 0.12 µg/mL and an MIC (Acinetobacter baumannii [16]) of 32 µg/mL. The MIC (Acinetobacter baumannii [17]) was 16 µg/mL, the clearance [18] was 2.28 mL/min/kg and the Survival (Enterococcus faecium [19]) was 100%. For the same compound, the MIC (Enterococcus faecium [20]) was 0.5 µg/mL, the survival at 7 mg/kg (Staphylococcus aureus [21]) was 100% and the Vd [22] was 0.566 L/kg. For the same compound, the concentration at 8 h [23] was roughly 700 ng/mL, the survival at 5 mg/kg (Enterococcus faecium [24]) was 50% and the viability at 72 h, 50 mg/L [25] was roughly 100%. The MIC (Klebsiella pneumoniae) was 128 µg/mL, the Activity (Acinetobacter baumannii [26]) was “Active” and the MIC (Bacteria) was no more than 0.063 µg/mL. It also gave an AUC(0-t) [27] of 41600 ng·h/mL.
